Assay results: patent publication US9790189B2, “Disubstituted 5-fluoro pyrimidine derivatives containing a sulfondiimine group” (Bayer Pharma Aktiengesellschaft, priority 2014, dated 2017)
Values after ≈ are worked out from the molar mass of the structure shown.

Legend:
HeLa-MaTu-ADR cells = test: Proliferation assay, HeLa-MaTu-ADR (crystal violet); assay type: cell-based; settings: Homo sapiens, 96 h, 4 days, read-out: Inhibition of HeLa-MaTu-ADR cell proliferation IC50
Description: (§1) Cultivated tumour cells (HeLa, human cervical tumour cells, ATCC CCL-2; NCI-H460, human non-small cell lung carcinoma cells, ATCC HTB-177; A2780, human ovarian carcinoma cells, ECACC #93112519; DU 145, hormone-independent human prostate carcinoma cells, ATCC HTB-81; HeLa-MaTu-ADR, multidrug-resistant human cervical carcinoma cells, EPO-GmbH Berlin; Caco-2, human colorectal carcinoma cells, ATCC HTB-37; B16F10, mouse melanoma cells, ATCC CRL-6475) were plated at a density of 5,000 cells/well (DU145, HeLa-MaTu-ADR), 3,000 cells/well (NCI-H460, HeLa), 2,500 cells/well (A2780), 1,500 cells/well (Caco-2), or 1,000 cells/well (B16F10) in a 96-well multititer plate in 200 μL of their respective growth medium supplemented 10% fetal calf serum. After 24 hours, the cells of one plate (zero-point plate) were stained with crystal violet (see below), while the medium of the other plates was replaced by fresh culture medium (200 μl), to which the test substances were added in various concentrations (0 μM, as well as in the range of 0.001-10 μM; the final concentration of the solvent dimethyl sulfoxide was 0.5%). The cells were incubated for 4 days in the presence of test substances. Cell proliferation was determined by staining the cells with crystal violet: the cells were fixed by adding 20 μl/measuring point of an 11% glutaric aldehyde solution for 15 minutes at room temperature. After three washing cycles of the fixed cells with water, the plates were dried at room temperature. The cells were stained by adding 100 μl/measuring point of a 0.1% crystal violet solution (pH 3.0). After three washing cycles of the stained cells with water, the plates were dried at room temperature. The dye was dissolved by adding 100 μl/measuring point of a 10% acetic acid solution. The extinction was determined by photometry at a wavelength of 595 nm. The change of cell number, in percent, was calculated by normalization of the measured values to the extinction values of the zero-point plate (=0%) and the extinction of the untreated (0 μm) cells (=100%).

[1] = Thermodynamic solubility in water from powder (Method 4b); assay type: physicochemical; settings: aqueous buffer, thermodynamic from solid, phosphate buffer pH 6.5, 24 hrs, room temperature
Description: (§2) 4. Equilibrium Shake Flask Solubility Assays:
4b) Thermodynamic Solubility in Water from Powder
The thermodynamic solubility of compounds in water was determined by an equilibrium shake flask method (see for example: E. H. Kerns, L. Di: Drug-like Properties: Concepts, Structure Design and Methods, 276-286, Burlington, Mass., Academic Press, 2008). A saturated solution of the drug was prepared and the solution was mixed for 24 h to ensure that equilibrium was reached. The solution was centrifuged to remove the insoluble fraction and the concentration of the compound in solution was determined using a standard calibration curve. To prepare the sample, 2 mg solid compound was weighed in a 4 mL glass vial. 1 mL phosphate buffer pH 6.5 was added. The suspension was stirred for 24 hrs at room temperature. The solution was centrifuged afterwards. To prepare the sample for the standard calibration, 2 mg solid sample was dissolved in 30 mL acetonitrile. After sonification the solution was diluted with water to 50 mL. Sample and standards were quantified by HPLC with UV-detection. For each sample two injection volumes (5 and 50 μl) in triplicates were made. Three injection volumes (5 μl, 10 μl and 20 μl) were made for the standard. […]
The areas of sample- and standard injections as well as the calculation of the solubility value (in mg/l) were determined by using HPLC software (Waters Empower 2 FR).

[2] = Equilibrium shake flask solubility, high throughput from DMSO solution (Method 4a); assay type: physicochemical; settings: phosphate buffer pH 6.5 with 1% DMSO, aqueous buffer, phosphate buffer pH 6.5, 24 hrs, room temperature
Excerpt: as §2
4a) High Throughput Determination of Aqueous Drug Solubility (100 mmolar in DMSO)
The high throughput screening method to determine aqueous drug solubility is based on:
Thomas Onofrey and Greg Kazan, Performance and correlation of a 96-well high throughput screening method to determine aqueous drug solubility, http://www.millipore.com/publications.nsf/a73664f9f981af8c852569b9005b4eee/e565516fb76e7435852 56da30052db77/$FILE/AN1731EN00.pdf
The assay was run in a 96-well plate format. Each well was filled with an individual compound.
All pipetting steps were performed using a robot platform.
100 μl of a 10 mmolar solution of drug in DMSO were concentrated by vacuum centrifugation and resolved in 10 μl DMSO. 990 μl phosphate buffer pH 6.5 were added. The content of DMSO amounts to 1%. The multititer plate was put on a shaker and mixed for 24 hrs at room temperature. 150 μl of the suspension were transferred to a filtration plate. After filtration using a vacuum manifold the filtrate was diluted 1:400 and 1:8000. A second microtiter plate with 20 μl of a 10 mM solution of drug in DMSO served for calibration. Two concentrations (0.005 μM and 0.0025 μM) were prepared by dilution in DMSO/water 1:1 and used for calibration. Filtrate and calibration plates were quantified by HPLC-MS/MS.
Preparation of 0.1 m Phosphate Buffer pH 6.5:
61.86 g NaCl and 39.54 mg KH2PO4 were solved in water and filled up to […]. The mixture was diluted 1:10 with water and the pH adjusted to 6.5 by NaOH.
Materials: • Millipore MultiScreenHTS-HV Plate 0.45 μm
Chromatographic conditions were as follows: • HPLC column: Ascentis Express C18 2.7 μm 4.6×30 mm • Injection volume: 1 μl • Flow: 1.5 ml/min • Mobile phase: acidic gradient • A: Water/0.05% HCOOH • B: Acetonitrile/0.05% HCOOH • 0 min→95% A 5% B • 0.75 min→5% A 95% B • 2.75 min→5% A 95% B • 2.76 min→95% A 5% B • 3 min→95% A 5% B
The areas of sample- and calibration injections were determined by using mass spectromety software (AB SCIEX: Discovery Quant 2.1.3. and Analyst 1.6.1). The calculation of the solubility value (in mg/l) was executed by an inhouse developed Excel macro.

HeLa cells = test: Proliferation assay, HeLa (crystal violet); assay type: cell-based; settings: Homo sapiens, 96 h, 4 days, read-out: Inhibition of HeLa cell proliferation IC50
Description: as §1

NCI-H460 cells = test: Proliferation assay, NCI-H460 (crystal violet); assay type: cell-based; settings: Homo sapiens, 96 h; NCI-H460, 4 days; read-out: Inhibition of NCI-H460 cell proliferation IC50
Description: as §1

DU145 cells = test: Proliferation assay, DU145 (crystal violet); assay type: cell-based; settings: Homo sapiens, DU-145, 96 h; DU145, 4 days; read-out: Inhibition of DU145 cell proliferation IC50
Description: as §1

Caco-2 cells = test: Proliferation assay, Caco-2 (crystal violet); assay type: cell-based; settings: Homo sapiens, 96 h; Caco-2, 4 days; read-out: Inhibition of Caco-2 cell proliferation IC50
Description: as §1

A2780 cells = test: Proliferation assay, A2780 (crystal violet); assay type: cell-based; settings: Homo sapiens, 96 h; A2780, 4 days; read-out: Inhibition of A2780 cell proliferation IC50
Description: as §1

[3] = Caco-2 permeation assay (Method 5); assay type: in vitro ADME; settings: human, pH 7.2, Caco-2, 2 μM test compound, 2 h
Description: Cells were maintained at 37° C. in a humidified 5% CO2 atmosphere. Medium was changed every 2-3 day. Before running the permeation assay, the culture medium was replaced by a FCS-free hepes-carbonate transport buffer (pH 7.2). For assessment of monolayer integrity the transepithelial electrical resistance (TEER) was measured. Test compounds were predissolved in DMSO and added either to the apical or basolateral compartment in final concentration of 2 μM in transport buffer. Before and after 2 h incubation at 37° C. samples were taken from both compartments. Analysis of compound content was done after precipitation with methanol by LC/MS/MS analysis. Permeability (Papp) was calculated in the apical to basolateral (A→B) and basolateral to apical (B→A) directions. […] The efflux ratio basolateral (B) to apical (A) was calculated by dividing the Papp B−A by the Papp A−B. In addition the compound recovery was calculated.

B16F10 cells = test: Proliferation assay, B16F10 (crystal violet); assay type: cell-based; settings: Mus musculus, B16-F10, 96 h; B16F10, 4 days; read-out: Inhibition of B16F10 cell proliferation IC50
Description: as §1

## COc1cc(F)ccc1-c1nc(Nc2cc(F)cc(CS(C)(=N)=N)c2)ncc1F [Example 1, 5-Fluoro-4-(4-fluoro-2-methoxyphenyl)-N-{3-fluoro-5-[(S-methylsulfonodiimidoyl)methyl]phenyl}pyrimidin-2-amine]
HeLa-MaTu-ADR cells
  IC50: 327 nM
[1]
  solubility thermodynamic at 24 h: 91 µg/mL (≈ 216 µM)
[2]
  solubility thermodynamic at 24 h: 155 µg/mL (≈ 368 µM)
HeLa cells
  IC50: 252 nM
NCI-H460 cells
  IC50: 351 nM
DU145 cells
  IC50: 341 nM
Caco-2 cells
  IC50: 386 nM
A2780 cells
  IC50: 201 nM
[3]; read-out: Papp A−B (Mari)
  Papp A→B at 2 h, 2 µM: 5 ×10⁻⁶ cm/s
[3]; read-out: Papp B−A (Mari)
  Papp B→A at 2 h, 2 µM: 28 ×10⁻⁶ cm/s
B16F10 cells
  IC50: 532 nM
